The values that follow are results of earlier work, collected in publication PMC6344135, “Analgesic effects of the cathepsin K inhibitor L-006235 in the monosodium iodoacetate model of osteoarthritis pain” (Pain Reports, 2018).

Data set [1] relates to rabbit ACLT and dog partial medial meniscectomy models. Also noted: method as in PMID 29523155. As to conditions: once daily for 7 weeks (rabbit), 28 days (dog).
The test system of a further data set is surgical model of OA. The following applies: pain not analysed.
A further data set relates to MIA model of OA pain. As to conditions: preventative and reversal.

Turning to `C#C[C@@H]1CN(C(=O)[C@H](CC(C)C)NC(=O)c2ccc(-c3nc(N4CCN(C)CC4)sc3F)cc2)[C@@H]2C(=O)CO[C@H]12` [MIV-711], the joint pathology entry in data set [1] is “prophylactic and therapeutic effects”.

Take `NCCCC(O)(P(=O)(O)O)P(=O)(O)O` [alendronate]: the “bone resorption and cartilage” value in the data set with surgical model of OA was “inhibited bone resorption and had chondroprotective effects”. In the case of `O=P(O)(O)C(O)(Cn1ccnc1)P(=O)(O)O` [zoledronate], the “pain behaviour in MIA rats” value in the data set on MIA model of OA pain is “Significant preventative, and reversal, effects”.
